One compound from article PMC10574557, “The Inhibitory Effect of Magnolol on the Human TWIK1 Channel Is Related to G229 and T225 Sites” (Molecules, 2023) can be followed below.

Common to all, as to format: cell-based
Experiment [1] has as its target T1, TWIK1 (K2P1.1/KCNK1) (Homo sapiens, UniProt O00180, I140A).
T1 construct: full-length cDNA (OriGene) in pcDNA3.1(neo+), stably expressed in HEK293; mutants transiently transfected in HEK293 with CD8; homodimer
T1 sequence (O00180 1-336 I140A): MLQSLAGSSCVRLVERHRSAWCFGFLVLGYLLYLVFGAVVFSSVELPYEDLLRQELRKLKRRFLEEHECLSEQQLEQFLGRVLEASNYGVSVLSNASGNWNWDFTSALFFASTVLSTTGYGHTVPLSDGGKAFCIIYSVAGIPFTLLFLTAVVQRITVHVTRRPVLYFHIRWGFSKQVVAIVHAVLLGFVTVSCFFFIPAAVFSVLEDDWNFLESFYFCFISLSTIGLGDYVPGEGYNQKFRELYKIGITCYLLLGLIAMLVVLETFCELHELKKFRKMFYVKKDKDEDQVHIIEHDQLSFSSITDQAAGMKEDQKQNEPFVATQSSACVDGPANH
Kind of experiment: whole-cell patch clamp, transiently transfected HEK293, Hill fit.

In experiment [2] the target is T2, TWIK1 (K2P1.1/KCNK1) (Homo sapiens, UniProt O00180, L223A).
T2 construct: full-length cDNA (OriGene) in pcDNA3.1(neo+), stably expressed in HEK293; mutants transiently transfected in HEK293 with CD8; homodimer
T2 sequence (O00180 1-336 L223A): T1 sequence (O00180 1-336 I140A) with A140I, L223A
Described as above.

In experiment [3] the target is T3, TWIK1 (K2P1.1/KCNK1) (Homo sapiens, UniProt O00180, S224A).
T3 construct: full-length cDNA (OriGene) in pcDNA3.1(neo+), stably expressed in HEK293; mutants transiently transfected in HEK293 with CD8; homodimer
T3 sequence (O00180 1-336 S224A): T1 sequence (O00180 1-336 I140A) with A140I, S224A
The experiment is described as above.

The target of experiment [4] is T4, TWIK1 (K2P1.1/KCNK1) (Homo sapiens, UniProt O00180).
T4 construct: full-length cDNA (OriGene) in pcDNA3.1(neo+), stably expressed in HEK293; mutants transiently transfected in HEK293 with CD8; homodimer
T4 sequence (O00180 1-336): T1 sequence (O00180 1-336 I140A) with A140I
Kind of experiment: whole-cell patch clamp, HEK293-TWIK1 stable line, Hill fit.

Experiment [5] deals with T5, TWIK1 (K2P1.1/KCNK1) (Homo sapiens, UniProt O00180, T225A).
T5 construct: full-length cDNA (OriGene) in pcDNA3.1(neo+), stably expressed in HEK293; mutants transiently transfected in HEK293 with CD8; homodimer
T5 sequence (O00180 1-336 T225A): T1 sequence (O00180 1-336 I140A) with A140I, T225A
Kind of experiment: whole-cell patch clamp, transiently transfected HEK293, Hill fit.

Experiment [6] concerns the target T6, TWIK1 (K2P1.1/KCNK1) (Homo sapiens, UniProt O00180, G229A).
T6 construct: full-length cDNA (OriGene) in pcDNA3.1(neo+), stably expressed in HEK293; mutants transiently transfected in HEK293 with CD8; homodimer
T6 sequence (O00180 1-336 G229A): T1 sequence (O00180 1-336 I140A) with A140I, G229A
The experiment is described as above.

Positions count from the first letter of the chain named.

For orientation: IC50 means the concentration at which inhibition is half-maximal. A lower IC50 goes with higher potency. On to `C=CCc1ccc(O)c(-c2cc(CC=C)ccc2O)c1` [magnolol], for which the IC50 was 10.2 ± 1.07 µM against TWIK1 (K2P1.1/KCNK1) [1]; 9.55 ± 1.62 µM on TWIK1 (K2P1.1/KCNK1) [2]; 7.43 ± 3.2 µM against TWIK1 (K2P1.1/KCNK1) [3]; 6.21 ± 0.13 µM against TWIK1 (K2P1.1/KCNK1) [4]; 21.8 ± 7.93 µM at TWIK1 (K2P1.1/KCNK1) [5]; 20.8 ± 3.2 µM against TWIK1 (K2P1.1/KCNK1) [6].
